# Assay results from patent publication US20250051327A1, “MALT-1 MODULATORS” (EXSCIENTIA AI LIMITED, priority 2020, published 2025).
# Legend:
# [1] = molecular target: Recombinant human MALT-1 (amino acids 340-824) (Homo sapiens (Human), UniProt Q9UDY8); assay: MALT-1 inhibition assay (fluorogenic substrate Ac-LRSR-Rh110-DP); assay type: biochemical; settings: recombinant human MALT-1, substrate Ac-LRSR-Rh110-DP
# Summary of the method: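 MALT-1 at 3 nM final was reacted with 10 μM Ac-LRSR-Rh110-DP, with substrate addition starting the reaction. Incubation ran 60 minutes at 25° C in the dark. Percent inhibition from fluorescence across doses was fitted to a 4-parameter logistic to give IC50.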
# [2] = test system: IL-2 secretion by human effector memory T cells (TEM); assay: Effector memory T cells IL-2 release assay; assay type: cell-based; settings: T-cell; human CD4+ effector memory T cells, CD3/CD28 bead stimulation, 24 h; read-out: CD4TC IL2 IC50
# Summary of the method: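 Human CD4+ effector memory T cells from healthy-donor buffy coats were stimulated with anti-CD3/CD28 Dynabeads and exposed to 10 semi-log compound doses (0.1% DMSO) for 24 h at 37 °C. Supernatant IL-2 was measured by HTRF, and IC50 came from a 4-parameter logistic fit to maximal IL-2. Viability was checked by flow cytometry.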
# Recombinant human MALT-1 (amino acids 340-824), sequence (Q9UDY8 340-824): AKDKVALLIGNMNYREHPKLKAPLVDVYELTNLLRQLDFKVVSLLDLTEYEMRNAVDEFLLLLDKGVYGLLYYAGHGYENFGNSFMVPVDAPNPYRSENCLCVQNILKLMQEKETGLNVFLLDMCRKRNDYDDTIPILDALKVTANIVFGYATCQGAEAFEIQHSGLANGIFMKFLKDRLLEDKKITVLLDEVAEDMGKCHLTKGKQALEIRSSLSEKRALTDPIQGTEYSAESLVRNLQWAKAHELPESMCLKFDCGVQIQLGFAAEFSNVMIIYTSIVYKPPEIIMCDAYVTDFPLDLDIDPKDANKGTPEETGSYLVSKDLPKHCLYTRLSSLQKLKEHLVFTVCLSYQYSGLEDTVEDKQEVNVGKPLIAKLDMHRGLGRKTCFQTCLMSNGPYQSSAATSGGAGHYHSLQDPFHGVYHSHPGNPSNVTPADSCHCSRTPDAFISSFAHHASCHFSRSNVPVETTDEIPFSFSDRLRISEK
IC50 [1] [µM],IC50 [2] [µM],SMILES
0.08,0.122,"CN1C[C@@H](C(=O)N(C)[C@@H](c2ccc(N3CCCc4c3cnc3cc(Cl)nn43)cc2)C(F)(F)F)CCC1=O (relative stereo) [CPD0073196, (3rel-S)-N-[(1S)-1-(4-{4-chloro-2,3,7,10-tetraazatricyclo[7.4.0.0^2,6]trideca-1(9),3,5,7-tetraen-10-yl}phenyl)-2,2,2-trifluoroethyl]-N,1-dimethyl-6-oxopiperidine-3-carboxamide]"
0.103,0.207,"CN1C[C@H](C(=O)N(C)[C@@H](c2ccc(N3CCCc4c3cnc3cc(Cl)nn43)cc2)C(F)(F)F)CCC1=O (relative stereo) [CPD0073197, (3rel-R)-N-[(1S)-1-(4-{4-chloro-2,3,7,10-tetraazatricyclo[7.4.0.0^2,6]trideca-1(9),3,5,7-tetraen-10-yl}phenyl)-2,2,2-trifluoroethyl]-N,1-dimethyl-6-oxopiperidine-3-carboxamide]"
0.127,0.175,"CC(=O)N1CCC[C@@H](C(=O)N(C)[C@@H](c2ccc(N3CCCc4c3cnc3cc(Cl)nn43)cc2)C(F)(F)F)C1 (relative stereo) [CPD0073499, (3rel-R)-1-acetyl-N-[(1S)-1-(4-{4-chloro-2,3,7,10-tetraazatricyclo[7.4.0.0^2,6]trideca-1(9),3,5,7-tetraen-10-yl}phenyl)-2,2,2-trifluoroethyl]-N-methylpiperidine-3-carboxamide]"
0.167,0.267,"CC(=O)N1CCC[C@H](C(=O)N(C)[C@@H](c2ccc(N3CCCc4c3cnc3cc(Cl)nn43)cc2)C(F)(F)F)C1 (relative stereo) [CPD0073500, (3rel-S)-1-acetyl-N-[(1S)-1-(4-{4-chloro-2,3,7,10-tetraazatricyclo[7.4.0.0^2,6]trideca-1(9),3,5,7-tetraen-10-yl}phenyl)-2,2,2-trifluoroethyl]-N-methylpiperidine-3-carboxamide]"
0.079,0.2,"CN1C[C@H](C(=O)N(C)[C@@H](c2ccc(N3CCCc4c3cnc3cc(Cl)nn43)cc2)C(F)(F)F)CC1=O (relative stereo) [CPD0073556, (3rel-R)-N-[(1S)-1-(4-{4-chloro-2,3,7,10-tetraazatricyclo[7.4.0.0^2,6]trideca-1(9),3,5,7-tetraen-10-yl}phenyl)-2,2,2-trifluoroethyl]-N,1-dimethyl-5-oxopyrrolidine-3-carboxamide]"
0.121,0.282,"CN1C[C@@H](C(=O)N(C)[C@@H](c2ccc(N3CCCc4c3cnc3cc(Cl)nn43)cc2)C(F)(F)F)CC1=O (relative stereo) [CPD0073557, (3rel-S)-N-[(1S)-1-(4-{4-chloro-2,3,7,10-tetraazatricyclo[7.4.0.0^2,6]trideca-1(9),3,5,7-tetraen-10-yl}phenyl)-2,2,2-trifluoroethyl]-N,1-dimethyl-5-oxopyrrolidine-3-carboxamide]"
0.092,0.157,"CN(C(=O)[C@H]1CCCS(=O)(=O)N1)[C@@H](c1ccc(N2CCCc3c2cnc2cc(Cl)nn32)cc1)C(F)(F)F (relative stereo) [CPD0073560, (3rel-R)-N-[(1S)-1-(4-{4-chloro-2,3,7,10-tetraazatricyclo[7.4.0.0^2,6]trideca-1(9),3,5,7-tetraen-10-yl}phenyl)-2,2,2-trifluoroethyl]-N-methyl-1,1-dioxo-1λ^6,2-thiazinane-3-carboxamide]"
0.08,0.352,"CN(C(=O)C1CN(C(=O)[C@H]2CCO2)C1)[C@@H](c1ccc(N2CCCc3c2cnc2cc(Cl)nn32)cc1)C(F)(F)F (relative stereo) [CPD0073562, N-[(1S)-1-(4-{4-chloro-2,3,7,10-tetraazatricyclo[7.4.0.0^2,6]trideca-1(9),3,5,7-tetraen-10-yl}phenyl)-2,2,2-trifluoroethyl]-N-methyl-1-[(2rel-R)-oxetane-2-carbonyl]azetidine-3-carboxamide]"
0.062,0.269,"CN(C(=O)C1CN(C(=O)[C@@H]2CCO2)C1)[C@@H](c1ccc(N2CCCc3c2cnc2cc(Cl)nn32)cc1)C(F)(F)F (relative stereo) [CPD0073563, N-[(1S)-1-(4-{4-chloro-2,3,7,10-tetraazatricyclo[7.4.0.0^2,6]trideca-1(9),3,5,7-tetraen-10-yl}phenyl)-2,2,2-trifluoroethyl]-N-methyl-1-[(2rel-S)-oxetane-2-carbonyl]azetidine-3-carboxamide]"
0.076,0.241,"CN(C(=O)[C@@H]1CCC(=O)N1)[C@@H](c1ccc(N2CCCc3c2cnc2cc(Cl)nn32)cc1)C(F)(F)F (relative stereo) [CPD0073566, (2rel-S)-N-[(1S)-1-(4-{4-chloro-2,3,7,10-tetraazatricyclo[7.4.0.0^2,6]trideca-1(9),3,5,7-tetraen-10-yl}phenyl)-2,2,2-trifluoroethyl]-N-methyl-5-oxopyrrolidine-2-carboxamide]"
0.035,0.119,"CN(C(=O)[C@H]1CCC(=O)N1)[C@@H](c1ccc(N2CCCc3c2cnc2cc(Cl)nn32)cc1)C(F)(F)F (relative stereo) [CPD0073567, (2rel-R)-N-[(1S)-1-(4-{4-chloro-2,3,7,10-tetraazatricyclo[7.4.0.0^2,6]trideca-1(9),3,5,7-tetraen-10-yl}phenyl)-2,2,2-trifluoroethyl]-N-methyl-5-oxopyrrolidine-2-carboxamide]"
0.038,0.131,"CN(C(=O)[C@@H]1CCC(=O)NC1)[C@@H](c1ccc(N2CCCc3c2cnc2cc(Cl)nn32)cc1)C(F)(F)F (relative stereo) [CPD0073568, (3rel-R)-N-[(1S)-1-(4-{4-chloro-2,3,7,10-tetraazatricyclo[7.4.0.0^2,6]trideca-1(9),3,5,7-tetraen-10-yl}phenyl)-2,2,2-trifluoroethyl]-N-methyl-6-oxopiperidine-3-carboxamide]"
0.047,0.14,"CN(C(=O)[C@H]1CCC(=O)NC1)[C@@H](c1ccc(N2CCCc3c2cnc2cc(Cl)nn32)cc1)C(F)(F)F (relative stereo) [CPD0073569, (3rel-S)-N-[(1S)-1-(4-{4-chloro-2,3,7,10-tetraazatricyclo[7.4.0.0^2,6]trideca-1(9),3,5,7-tetraen-10-yl}phenyl)-2,2,2-trifluoroethyl]-N-methyl-6-oxopiperidine-3-carboxamide]"
0.062,0.216,"CN1C(=O)OC[C@@H]1C(=O)N(C)[C@@H](c1ccc(N2CCCc3c2cnc2cc(Cl)nn32)cc1)C(F)(F)F (relative stereo) [CPD0073570, (4rel-R)-N-[(1S)-1-(4-{4-chloro-2,3,7,10-tetraazatricyclo[7.4.0.0^2,6]trideca-1(9),3,5,7-tetraen-10-yl}phenyl)-2,2,2-trifluoroethyl]-N,3-dimethyl-2-oxo-1,3-oxazolidine-4-carboxamide]"
0.052,0.153,"CN(C(=O)[C@@H]1COC(=O)N1C)[C@@H](c1ccc(N2CCCc3c2cnc2cc(Cl)nn32)cc1)C(F)(F)F (relative stereo) [CPD0073571, (4rel-S)-N-[(1S)-1-(4-{4-chloro-2,3,7,10-tetraazatricyclo[7.4.0.0^2,6]trideca-1(9),3,5,7-tetraen-10-yl}phenyl)-2,2,2-trifluoroethyl]-N,3-dimethyl-2-oxo-1,3-oxazolidine-4-carboxamide]"
0.109,0.186,"CN(C(=O)[C@@H]1CC12CCS(=O)(=O)CC2)[C@@H](c1ccc(N2CCCc3c2cnc2cc(Cl)nn32)cc1)C(F)(F)F (relative stereo) [CPD0073921, (1rel-R)-N-[(1S)-1-(4-{4-chloro-2,3,7,10-tetraazatricyclo[7.4.0.0^2,6]trideca-1(9),3,5,7-tetraen-10-yl}phenyl)-2,2,2-trifluoroethyl]-N-methyl-6,6-dioxo-6λ^6-thiaspiro[2.5]octane-1-carboxamide]"
0.173,0.994,"CN(C(=O)[C@H]1CC12CCS(=O)(=O)CC2)[C@@H](c1ccc(N2CCCc3c2cnc2cc(Cl)nn32)cc1)C(F)(F)F (relative stereo) [CPD0073922, (1rel-S)-N-[(1S)-1-(4-{4-chloro-2,3,7,10-tetraazatricyclo[7.4.0.0^2,6]trideca-1(9),3,5,7-tetraen-10-yl}phenyl)-2,2,2-trifluoroethyl]-N-methyl-6,6-dioxo-6λ^6-thiaspiro[2.5]octane-1-carboxamide]"
0.1,0.199,"CN(C(=O)[C@@H]1CS(=O)(=O)CC12CC2)[C@@H](c1ccc(N2CCCc3c2cnc2cc(Cl)nn32)cc1)C(F)(F)F (relative stereo) [CPD0073968, (7rel-R)-N-[(1S)-1-(4-{4-chloro-2,3,7,10-tetraazatricyclo[7.4.0.0^2,6]trideca-1(9),3,5,7-tetraen-10-yl}phenyl)-2,2,2-trifluoroethyl]-N-methyl-5,5-dioxo-5λ^6-thiaspiro[2.4]heptane-7-carboxamide]"
0.057,0.149,"CN(C(=O)[C@@H](O)C1CCS(=O)(=O)CC1)[C@@H](c1ccc(N2CCCc3c2cnc2cc(Cl)nn32)cc1)C(F)(F)F (relative stereo) [CPD0073973, (2rel-S)—N-[(1S)-1-(4-{4-chloro-2,3,7,10-tetraazatricyclo[7.4.0.0^2,6]trideca-1(9),3,5,7-tetraen-10-yl}phenyl)-2,2,2-trifluoroethyl]-2-(1,1-dioxo-1λ^e-thian-4-yl)-2-hydroxy-N-methylacetamide]"
